In publication PMC13064811, “The Role of Disulfide Bonds in the GluN1 Subunit in the Early Trafficking and Functional Properties of GluN1/GluN2 and GluN1/GluN3 NMDA Receptors” (The Journal of Neuroscience, 2026) one finds τon-MK-801 data, which are given here for one molecule.

Assay [1] concerns the target GluN1-4a-C436S-C455S/GluN2A (Rattus norvegicus, UniProt P35439+Q00959, C436S/C455S).
Assay [2] has as its target GluN1-4a/GluN2B (Rattus norvegicus, UniProt P35439+Q00960).
Assay [3] addresses YFP-hGluN1-1a-C744Y/hGluN2A (Homo sapiens, UniProt Q05586+Q12879, C744Y). Format: cell-based.
For assay [4], the target named is YFP-GluN1-1a/GluN2A (Rattus norvegicus, UniProt P35439+Q00959).
In assay [5] the target is YFP-GluN1-4a-C436S-C455S/GluN2A (Rattus norvegicus, UniProt P35439+Q00959, C436S/C455S).
Assay [6] deals with YFP-GluN1-1a-C420S-C454S/GluN2A (Rattus norvegicus, UniProt P35439+Q00959, C420S/C454S).
Assay [7] concerns the target YFP-GluN1-1a-C79S-C308S/GluN2B (Rattus norvegicus, UniProt P35439+Q00960, C308S/C79S).
In assay [8] the target is GluN1-4a-C744S-C798S/GluN2A (Rattus norvegicus, UniProt P35439+Q00959, C744S/C798S).
Assay [9] has as its target YFP-GluN1-1a-C744S-C798S/GluN2A (Rattus norvegicus, UniProt P35439+Q00959, C744S/C798S).
Assay [10] concerns the target YFP-hGluN1-1a/hGluN2A (Homo sapiens, UniProt Q05586+Q12879). Format: cell-based.
The target of assay [11] is GluN1-4a-C420S-C454S/GluN2A (Rattus norvegicus, UniProt P35439+Q00959, C420S/C454S).
The target of assay [12] is GluN1-4a-C436S-C455S/GluN2B (Rattus norvegicus, UniProt P35439+Q00960, C436S/C455S).
For assay [13], the target named is YFP-hGluN1-1a/hGluN2B (Homo sapiens, UniProt Q05586+Q13224). The format is cell-based.
In assay [14] the target is YFP-GluN1-1a-C744S-C798S/GluN2B (Rattus norvegicus, UniProt P35439+Q00960, C744S/C798S).
Assay [15] concerns the target GluN1-4a-C744S-C798S/GluN2B (Rattus norvegicus, UniProt P35439+Q00960, C744S/C798S).
In assay [16] the target is YFP-GluN1-1a-C79S-C308S/GluN2A (Rattus norvegicus, UniProt P35439+Q00959, C308S/C79S).
Assay [17] deals with GluN1-4a-C79S-C308S/GluN2B (Rattus norvegicus, UniProt P35439+Q00960, C308S/C79S).
The target in assay [18] is YFP-hGluN1-1a-C744Y/hGluN2B (Homo sapiens, UniProt Q05586+Q13224, C744Y). Format: cell-based.
Assay [19] has as its target GluN1-4a-C79S-C308S/GluN2A (Rattus norvegicus, UniProt P35439+Q00959, C308S/C79S).
The target in assay [20] is GluN1-4a/GluN2A (Rattus norvegicus, UniProt P35439+Q00959).
Assay [21] has as its target YFP-GluN1-1a-C420S-C454S/GluN2B (Rattus norvegicus, UniProt P35439+Q00960, C420S/C454S).
The target in assay [22] is YFP-GluN1-1a/GluN2B (Rattus norvegicus, UniProt P35439+Q00960).
The target in assay [23] is YFP-GluN1-4a-C436S-C455S/GluN2B (Rattus norvegicus, UniProt P35439+Q00960, C436S/C455S).

YFP-hGluN1-1a/hGluN2A, sequence (Q12879 23-1464, other chains not shown): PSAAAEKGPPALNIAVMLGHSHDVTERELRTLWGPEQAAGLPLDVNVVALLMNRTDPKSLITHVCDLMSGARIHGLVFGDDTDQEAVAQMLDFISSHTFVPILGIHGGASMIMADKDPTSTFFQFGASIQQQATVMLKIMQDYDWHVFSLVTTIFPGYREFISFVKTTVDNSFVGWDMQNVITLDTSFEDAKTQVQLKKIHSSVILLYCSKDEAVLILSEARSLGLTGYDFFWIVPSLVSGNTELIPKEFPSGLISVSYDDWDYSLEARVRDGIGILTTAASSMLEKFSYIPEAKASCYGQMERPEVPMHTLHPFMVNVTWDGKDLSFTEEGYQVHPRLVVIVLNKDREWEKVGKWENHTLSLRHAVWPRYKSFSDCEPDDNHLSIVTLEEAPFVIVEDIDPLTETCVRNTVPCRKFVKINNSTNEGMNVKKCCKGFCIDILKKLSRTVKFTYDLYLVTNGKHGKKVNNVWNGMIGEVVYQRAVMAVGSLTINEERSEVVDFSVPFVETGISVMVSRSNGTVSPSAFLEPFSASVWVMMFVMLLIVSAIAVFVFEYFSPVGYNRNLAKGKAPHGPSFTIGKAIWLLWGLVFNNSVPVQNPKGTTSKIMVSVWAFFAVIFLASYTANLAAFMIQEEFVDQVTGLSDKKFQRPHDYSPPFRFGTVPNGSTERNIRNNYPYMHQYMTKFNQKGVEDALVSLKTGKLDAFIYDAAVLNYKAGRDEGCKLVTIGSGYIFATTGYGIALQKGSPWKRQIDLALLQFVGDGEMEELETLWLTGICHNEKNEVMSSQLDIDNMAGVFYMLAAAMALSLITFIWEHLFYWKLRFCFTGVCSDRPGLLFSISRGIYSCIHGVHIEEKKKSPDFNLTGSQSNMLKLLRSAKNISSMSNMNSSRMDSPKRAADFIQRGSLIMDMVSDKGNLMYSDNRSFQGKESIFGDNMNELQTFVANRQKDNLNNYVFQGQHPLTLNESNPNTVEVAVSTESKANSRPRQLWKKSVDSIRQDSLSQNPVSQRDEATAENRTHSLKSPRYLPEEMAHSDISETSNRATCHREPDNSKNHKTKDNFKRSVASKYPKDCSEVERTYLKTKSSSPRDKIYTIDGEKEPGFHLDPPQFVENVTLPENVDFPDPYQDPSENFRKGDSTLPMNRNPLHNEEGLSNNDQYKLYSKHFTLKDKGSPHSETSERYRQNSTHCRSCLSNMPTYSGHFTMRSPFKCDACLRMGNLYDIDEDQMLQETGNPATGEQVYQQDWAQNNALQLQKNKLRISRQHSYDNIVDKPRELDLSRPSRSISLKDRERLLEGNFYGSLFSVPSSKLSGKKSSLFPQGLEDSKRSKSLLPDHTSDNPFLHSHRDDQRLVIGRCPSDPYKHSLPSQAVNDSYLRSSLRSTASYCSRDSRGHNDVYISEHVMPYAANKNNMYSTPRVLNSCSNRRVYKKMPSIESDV
YFP-hGluN1-1a-C744Y/hGluN2A, sequence (Q12879 23-1464, other chains not shown): as above
YFP-hGluN1-1a/hGluN2B, sequence (Q13224 27-1484, other chains not shown): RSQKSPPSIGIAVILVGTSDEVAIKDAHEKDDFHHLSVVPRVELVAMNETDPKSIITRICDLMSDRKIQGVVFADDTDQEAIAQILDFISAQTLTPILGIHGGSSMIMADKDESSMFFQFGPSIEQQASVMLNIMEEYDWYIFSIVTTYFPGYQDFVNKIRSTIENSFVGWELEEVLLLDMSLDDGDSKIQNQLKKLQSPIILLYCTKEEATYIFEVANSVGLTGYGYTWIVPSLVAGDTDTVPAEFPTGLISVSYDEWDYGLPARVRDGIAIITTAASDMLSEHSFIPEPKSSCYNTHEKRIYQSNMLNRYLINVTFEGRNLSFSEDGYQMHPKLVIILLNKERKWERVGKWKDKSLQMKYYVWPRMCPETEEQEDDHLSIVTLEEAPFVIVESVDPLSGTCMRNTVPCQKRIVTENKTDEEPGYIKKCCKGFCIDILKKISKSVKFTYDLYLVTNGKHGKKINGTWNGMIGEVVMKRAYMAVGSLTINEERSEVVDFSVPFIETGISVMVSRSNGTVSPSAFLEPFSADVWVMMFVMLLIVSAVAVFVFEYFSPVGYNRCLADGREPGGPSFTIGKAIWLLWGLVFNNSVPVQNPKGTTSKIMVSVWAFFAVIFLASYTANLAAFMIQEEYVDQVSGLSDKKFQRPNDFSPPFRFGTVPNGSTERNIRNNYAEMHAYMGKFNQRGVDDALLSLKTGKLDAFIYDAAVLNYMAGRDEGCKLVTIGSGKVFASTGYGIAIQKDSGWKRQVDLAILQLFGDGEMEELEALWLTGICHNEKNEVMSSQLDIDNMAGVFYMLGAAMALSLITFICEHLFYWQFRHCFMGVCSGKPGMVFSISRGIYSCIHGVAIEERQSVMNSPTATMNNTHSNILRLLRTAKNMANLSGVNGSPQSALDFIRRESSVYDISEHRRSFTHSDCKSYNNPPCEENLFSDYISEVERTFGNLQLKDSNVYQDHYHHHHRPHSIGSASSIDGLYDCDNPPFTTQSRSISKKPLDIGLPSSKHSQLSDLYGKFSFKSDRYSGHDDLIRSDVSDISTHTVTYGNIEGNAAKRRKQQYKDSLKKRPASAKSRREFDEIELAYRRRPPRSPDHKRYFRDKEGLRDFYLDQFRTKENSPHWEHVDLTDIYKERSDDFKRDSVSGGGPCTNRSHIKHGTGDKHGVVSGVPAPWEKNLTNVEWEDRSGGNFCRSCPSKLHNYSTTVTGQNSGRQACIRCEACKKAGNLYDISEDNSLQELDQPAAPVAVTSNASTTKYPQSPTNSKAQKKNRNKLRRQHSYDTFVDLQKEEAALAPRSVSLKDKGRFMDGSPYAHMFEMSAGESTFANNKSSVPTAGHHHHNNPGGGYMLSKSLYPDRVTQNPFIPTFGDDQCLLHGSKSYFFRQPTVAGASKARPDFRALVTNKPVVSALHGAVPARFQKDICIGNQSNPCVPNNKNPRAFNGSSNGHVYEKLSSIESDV

Turning to `C[C@]12N[C@H](Cc3ccccc31)c1ccccc12` [MK-801, Dizocilpine], the τon-MK-801 in assay [1] is listed as 910.61 ± 85.39 ms; in assay [2], 2,307.47 ± 151.45 ms; in assay [3] it was 240.25 ± 29.53 ms; in assay [4], 1,178.37 ± 93.82 ms; in [5] it was 937.85 ± 78.10 ms; in assay [6] it was 1,045.30 ± 112.94 ms. Besides, the τon-MK-801 is 3,010.09 ± 193.67 ms in [7]; 278.04 ± 55.79 ms in assay [8]; 345.28 ± 25.68 ms in assay [9]; 789.63 ± 58.54 ms in assay [10]; 987.68 ± 105.05 ms in assay [11]; 1,988.70 ± 356.79 ms in assay [12]. For the same molecule, the τon-MK-801 is 2,008.90 ± 224.76 ms in [13]; 765.01 ± 74.13 ms in assay [14]; 486.89 ± 100.90 ms in assay [15]; 1,109.06 ± 65.15 ms in [16]; 3,355.73 ± 243.72 ms in assay [17]; 846.35 ± 52.08 ms in assay [18]. Besides, the τon-MK-801 in assay [19] is listed as 1,038.07 ± 140.54 ms; in assay [20] it was 981.54 ± 19.11 ms; in assay [21], 2,612.49 ± 167.91 ms; in assay [22], 2,053.21 ± 117.07 ms; in assay [23] it was 2,040.87 ± 282.26 ms.
